From ChEMBL document CHEMBL1201862, “PubChem BioAssay data set” (2004)
Activity calls are given as the source filed them.

Columns and labels:
[1] = target: T1, Calpain-2 catalytic subunit (Sus scrofa, UniProt P43367); test: m-calpain protease blockers, concentration series – biochemical, fluorogenic peptide substrate, dose response (AID 1420); format: functional
T1 sequence (P43367 whole entry): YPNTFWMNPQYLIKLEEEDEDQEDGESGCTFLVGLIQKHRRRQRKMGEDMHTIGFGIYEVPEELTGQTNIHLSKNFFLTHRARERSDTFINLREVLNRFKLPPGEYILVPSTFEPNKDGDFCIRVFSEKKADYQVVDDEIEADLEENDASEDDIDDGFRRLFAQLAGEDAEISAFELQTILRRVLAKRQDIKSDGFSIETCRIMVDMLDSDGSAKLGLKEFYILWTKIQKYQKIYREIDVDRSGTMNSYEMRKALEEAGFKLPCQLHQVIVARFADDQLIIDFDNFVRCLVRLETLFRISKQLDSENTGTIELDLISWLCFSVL

[2] = non-specific 3'UTR reporter inhibition in Clone20-Shn3RL – cell-based, Renilla luciferase, cherry-picked, counter-screen for Shn3 inhibitor project, dose response (AID 624133); format: functional
[3] = reduction of Shn3 3'UTR-driven luciferase in osteoblasts – cell-based, Clone20 osteoblasts, firefly luciferase, cherry-picked, dose response (AID 624132); format: functional;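 further: firefly luciferase luminescence from reporter carrying the Shn3 3'UTR in osteoblasts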
[4] = loss of viability in HepG2 cells – cell-based, CellTiter-Glo, cherry-picked, cytotoxicity control for Shn3 inhibitor project, dose response (AID 624134); format: functional
H4 = test: Luminescence Cell-Based Dose Response HTS to Identify Activators of 5'UTR Stem-Loop Driven Prion Protein mRNA Translation in H4 Neuroglioblastoma Cells. [Related pubchem assays: 1829 (Project Summary), 1814 (Primary HTS)]; format: functional; conditions: Homo sapiens
[5] = Luminescence Cell-Based Dose Response HTS to Identify Activators of Luciferase Translation or Activity in H4 […] Cells. [Related pubchem assays: 1829 (Project Summary), 1814 (Primary HTS)]; format: functional
[6] = Luminescence Cell-Based Dose Confirmation HTS to Identify Activators of 5'UTR Stem-Loop Driven Alpha-Synuclein mRNA Translation in H4 Neuroglioblastoma Cells. [Related pubchem assays: 1829 (Project Summary), 1814 (Primary HTS)]; format: functional
cells = format: functional
H9c2 = test: cells; format: functional, cell-based; conditions: Rattus norvegicus, H9c2, Myocardium;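 further: confirmatory concentration-response retest of ultra-high-throughput screening hits for modulation of myocardial damage; cell death induced by hydrogen peroxide oxidative stress; compound pretreatment for 60 min then peroxide exposure for 2 h; potency is for protecting the cells against peroxide damage rather than for killing them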
[7] = target: T2, Short transient receptor potential channel 4 (Mus musculus, UniProt Q9QUQ5); test: calcium entry via TRPC4 opening agents – cell-based, HEK293 TRPC4/mu-opioid, Fluo-4 calcium, dose response (AID 434937); format: functional
T2 sequence (Q9QUQ5 whole entry): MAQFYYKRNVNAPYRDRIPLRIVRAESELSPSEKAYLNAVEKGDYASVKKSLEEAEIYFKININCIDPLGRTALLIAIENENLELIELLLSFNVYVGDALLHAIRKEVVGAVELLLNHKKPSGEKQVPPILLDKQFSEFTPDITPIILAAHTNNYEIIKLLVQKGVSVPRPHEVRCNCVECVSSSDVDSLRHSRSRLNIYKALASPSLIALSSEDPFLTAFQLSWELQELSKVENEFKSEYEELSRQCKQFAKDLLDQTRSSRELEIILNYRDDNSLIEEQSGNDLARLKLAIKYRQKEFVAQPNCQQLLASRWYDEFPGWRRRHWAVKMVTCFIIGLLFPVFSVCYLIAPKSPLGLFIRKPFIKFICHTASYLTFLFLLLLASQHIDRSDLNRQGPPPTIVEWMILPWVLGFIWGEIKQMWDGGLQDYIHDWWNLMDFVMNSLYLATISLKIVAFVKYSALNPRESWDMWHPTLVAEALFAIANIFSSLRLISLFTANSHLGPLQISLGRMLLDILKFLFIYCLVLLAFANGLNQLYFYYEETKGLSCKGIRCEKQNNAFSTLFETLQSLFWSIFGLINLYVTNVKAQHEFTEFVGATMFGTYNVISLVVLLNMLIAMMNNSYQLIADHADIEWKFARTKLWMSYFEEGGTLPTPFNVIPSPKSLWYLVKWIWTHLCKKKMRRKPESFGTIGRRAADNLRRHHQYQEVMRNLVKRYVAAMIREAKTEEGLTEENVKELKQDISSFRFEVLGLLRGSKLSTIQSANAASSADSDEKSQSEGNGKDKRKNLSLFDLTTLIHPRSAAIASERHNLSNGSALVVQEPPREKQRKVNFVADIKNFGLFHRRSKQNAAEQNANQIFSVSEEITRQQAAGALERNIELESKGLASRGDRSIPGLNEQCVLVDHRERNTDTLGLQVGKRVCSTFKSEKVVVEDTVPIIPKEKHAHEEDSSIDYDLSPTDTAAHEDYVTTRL

[8] = Trypanosoma cruzi growth suppression in host cells – NIH3T3 host cells, beta-gal luminescence, confirmation (AID 2044); format: functional, cell-based;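 further: intracellular parasites grown in NIH/3T3 mouse fibroblasts as host cells; luminescent beta-galactosidase reporter signal from transgenic T. cruzi replicating inside host cells; inhibitors lower the luminescence signal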
[9] = NIH3T3 cell viability loss – ATP luminescence, mouse fibroblasts, counter-screen, dose response (AID 2010); format: functional, cell-based;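 further: cells exposed to compound for about 90 hours before reading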
[10] = target: T3, Heat shock factor protein 1 (Mus musculus, UniProt P38532); test: decrease of HSF1-responsive luciferase luminescence – cell-based, NIH3T3, dose retest, confirmation (AID 2382); format: functional;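 further: NIH3T3 fibroblasts with HSF1-driven luciferase reporter stressed by proteasome inhibitor MG132; luminescence from HSF1-driven luciferase expression after 8 hours of MG132 stress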
T3 sequence (P38532 whole entry): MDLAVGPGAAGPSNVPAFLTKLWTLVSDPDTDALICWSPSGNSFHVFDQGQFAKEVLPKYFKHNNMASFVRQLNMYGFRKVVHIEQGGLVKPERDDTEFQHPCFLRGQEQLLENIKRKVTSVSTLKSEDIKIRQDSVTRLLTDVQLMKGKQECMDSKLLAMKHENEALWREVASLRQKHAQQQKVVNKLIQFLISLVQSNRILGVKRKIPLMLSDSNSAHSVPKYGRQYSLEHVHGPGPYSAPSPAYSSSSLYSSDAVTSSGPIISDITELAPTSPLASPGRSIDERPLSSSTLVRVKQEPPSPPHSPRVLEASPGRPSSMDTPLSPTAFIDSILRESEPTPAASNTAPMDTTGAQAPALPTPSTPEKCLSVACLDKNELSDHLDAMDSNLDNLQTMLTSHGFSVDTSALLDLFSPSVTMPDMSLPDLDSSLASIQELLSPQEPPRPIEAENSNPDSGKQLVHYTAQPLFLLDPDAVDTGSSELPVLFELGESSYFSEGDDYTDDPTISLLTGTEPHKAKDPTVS

Streptokinase A = target: T4, Streptokinase A (Streptococcus pyogenes serotype M1, UniProt P10520); test: viability-normalized secreted streptokinase activity reduction – plasminogen activation absorbance, OD405, dose response (AID 1914); format: functional, Streptococcus pyogenes M1 GAS;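 further: secreted streptokinase activity via plasminogen activation per viability signal from cell pellet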
T4 sequence (P10520 whole entry): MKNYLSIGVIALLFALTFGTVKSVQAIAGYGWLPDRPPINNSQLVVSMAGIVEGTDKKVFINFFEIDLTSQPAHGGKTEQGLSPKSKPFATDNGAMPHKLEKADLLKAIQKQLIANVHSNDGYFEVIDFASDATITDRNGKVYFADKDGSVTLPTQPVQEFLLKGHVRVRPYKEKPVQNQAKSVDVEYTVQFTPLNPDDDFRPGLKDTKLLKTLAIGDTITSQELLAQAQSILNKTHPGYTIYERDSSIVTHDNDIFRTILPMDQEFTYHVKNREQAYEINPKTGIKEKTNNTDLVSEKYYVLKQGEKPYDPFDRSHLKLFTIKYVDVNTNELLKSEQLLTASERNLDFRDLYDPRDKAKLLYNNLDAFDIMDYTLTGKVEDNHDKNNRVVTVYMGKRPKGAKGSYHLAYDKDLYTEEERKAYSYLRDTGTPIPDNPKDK

[11] = tested on: Streptococcus sp. 'group A'; test: Streptococcus pyogenes SK(-)GAS viability under kanamycin – luminescence, BacTiterGlo, confirmation, counter-screen for streptokinase expression inhibitor project, dose response (AID 1900); format: functional, organism-based
Streptococcus = test: GAS UMAA2166 growth inhibition – luminescence, BacTiterGlo, counter-screen for streptokinase expression inhibitor project, dose response (AID 1915); format: functional, organism-based;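 further: potency for reduction of bacterial viability or growth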
[12] = HIV-1 AD8 envelope cell-cell fusion blockers – cherry-pick, dose response (AID 652062); format: functional, cell-based;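 further: luciferase signal from cell-cell fusion driven by HIV-1 clade B AD8 Env; potency is for inhibitors of fusion seen as a drop in luminescence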
[13] = viability of uninfected HEp-2 cells – cell-based, HTS, cytotoxicity control for RSV inhibitor project, dose response (AID 2410); format: functional; conditions: human respiratory syncytial virus

O=C(COc1ccc(C(=O)c2ccccc2)cc1)NC1CCCCCC1
IC50 [1]: 22.9 µM (not active)

CC1(C)CC2CC(C)(CN2c2ncnc3ccc(Br)cc23)C1 (stereo unspecified)
AC50 [2]: 0.972 µM (active)
AC50 [3]: 2.11 µM (active)
AC50 [4]: 37.2 µM (active)

COc1ccc(OC(=O)c2cnn(-c3ccccc3)c2C)cc1
EC50 (H4): 1.93 µM (active)
EC50 [5]: 1.26 µM (active)
EC50 [6]: 9.33 µM (active)

O=C(CCN1CCC(c2cccs2)=N1)c1cccs1
EC50 (H4): 15.5 µM (active)
EC50 [5]: 17.8 µM (active)
EC50 [6]: 15.7 µM (active)
IC50 (cells): 35.8 µM (active)

Cc1csc(SCc2nc(O)c3c4c(sc3n2)CCC4)n1
IC50 (H9c2): 17.1 µM (active)

O=C(CNC(=O)c1nc[nH]c1C(=O)NCC(=O)OCc1ccccc1)OCc1ccccc1
IC50 (H9c2): 41 µM (inactive)

CN(CC(=O)N1CCCCCC1)S(=O)(=O)c1ccccc1
EC50 (H4): 18.1 µM (active)
EC50 [5]: 20.8 µM (active)
EC50 [6]: 15.4 µM (active)

CC(OC(=O)Cc1nnc(O)c2ccccc12)C(=O)Nc1ccccc1[N+](=O)[O-] (stereo unspecified)
IC50 (H9c2): > 79 µM (inactive)

Cc1cccc(NC(S)=NCC(c2ccccc2)N(C)C)c1 (stereo unspecified)
EC50 [7]: 0.119 µM (active)

O=C(c1c(F)cccc1F)N1CCN(c2ncc(Br)cn2)CC1
EC50 [7]: 0.596 µM (active)

Cc1cccc(C)c1N(CC(=O)Nc1cc(Cl)ccc1Oc1ccccc1)S(C)(=O)=O
IC50 [1]: 2.8 µM (not active)

O=C(CCCCn1c(=O)[nH]c2ccccc2c1=O)NC1CCN(Cc2ccccc2)CC1
EC50 [7]: 0.376 µM (active)

CCN1C(=O)/C(=C/c2nc3ccccc3c(=O)n2-c2ccc(C)cc2)c2ccccc21
EC50 [8]: 1.79 µM (active)
EC50 (H4): 49.8 µM (active)
EC50 [5]: > 120 µM (not active)
EC50 [6]: 11 µM (active)
EC50 [9]: > 60 µM (not active)

CCn1c(/C=C/Nc2ccccc2)[n+](CC)c2ccc(C(=O)OCC(F)(F)F)cc21
IC50 [1]: 6.92 µM (not active)

COc1ccc2nc(O)c(CN(Cc3cccnc3)S(=O)(=O)c3ccccc3F)cc2c1
EC50 [10]: 6.06 µM (active)
IC50 (H9c2): > 79 µM (inactive)

Cn1c(N2CCN(C(=O)Nc3ccc(C(F)(F)F)cc3)CC2)nc2ccccc21
EC50 [7]: 3.35 µM (active)

O=C(Nc1nnc(-c2ccco2)o1)c1ccc2ccccc2c1
EC50 (Streptokinase A): > 150 µM (not active)
EC50 [11]: 12.8 µM (active)
IC50 (H9c2): > 79 µM (inactive)
EC50 (Streptococcus): > 150 µM (not active)

CN(Cc1ccc(OC(F)F)cc1)C(=O)c1cccc(S(=O)(=O)N2CCN(c3ccccc3)CC2)c1
AC50 [2]: 1.65 µM (active)
AC50 [3]: 2.59 µM (active)
AC50 [4]: 62.1 µM (active)

CS(=O)(=O)Nc1ccc2c(c1)[C@H]1C[C@H](CC(=O)NCc3ccc(-c4ccccc4)cc3)O[C@H](CO)[C@H]1O2
AC50 [12]: 39 µM (active)

COc1ccc(CCn2c(=N)c(C(=O)NCC3CCCO3)cc3c(=O)n4cccc(C)c4nc32)cc1 (stereo unspecified)
EC50 [8]: 1.2 µM (active)
EC50 (H4): > 120 µM (not active)
EC50 [5]: 34.5 µM (active)
EC50 [6]: > 120 µM (not active)
EC50 [9]: > 30 µM (not active)

Cc1cc(C)n(C(=N)NC(=O)c2ccc([N+](=O)[O-])cc2)n1
EC50 (H4): 110 µM (active)
EC50 [5]: 26.7 µM (active)
EC50 [6]: 18.9 µM (active)

O=C(CCSc1ccccc1)NC(=O)COC(=O)C1CCCCC1
IC50 [1]: 6.64 µM (not active)

CCOc1ccccc1N(CC(=O)OC)S(=O)(=O)c1ccccc1
IC50 [1]: 35 µM (not active)

COc1ccc(CCNc2oc(COc3ccc(F)cc3)nc2C#N)cc1
IC50 [1]: 9.9 µM (not active)

CN1CCN(c2ccc([N+](=O)[O-])c3cccnc23)CC1
EC50 [7]: 0.004 µM (active)
EC50 [10]: > 195 µM (not active)

COc1c2c(cc3c1C(CC(O)Cc1ccccc1)N(C)CC3)OCO2 (stereo unspecified)
EC50 [7]: 2.99 µM (active)

S=C(NCCc1ccccc1)N1CCc2ccccc2C1
EC50 (H4): 26.3 µM (active)
EC50 [5]: 9.54 µM (active)
EC50 [6]: 12.2 µM (active)

COC(=O)c1ccccc1N=Nc1c(O)n[nH]c1N
CC50 [13]: > 50 µM (active)
EC50 [7]: 2.99 µM (active)

O=c1cc(-c2ccncc2)oc2ccccc12
CC50 [13]: 36.7 µM (active)
IC50 (H9c2): > 79 µM (inactive)

COc1ccc(NC(=O)c2ccccc2SC)cc1
IC50 [1]: 8.1 µM (not active)

COCCCn1c(C)nc2c(c1=O)c1nc3ccccc3nc1n2CCc1ccccc1
IC50 (H9c2): 11.7 µM (active)

CC(=O)N1N=C(c2ccccc2)CC1c1cn(C)c2ccccc12 (stereo unspecified)
EC50 (H4): 53 µM (active)
EC50 [5]: 10.4 µM (active)
EC50 [6]: 9.19 µM (active)

O=c1cc(CN2CCN(S(=O)(=O)c3cccc(Cl)c3)CC2)c2ccc(O)cc2o1
IC50 (H9c2): > 79 µM (inactive)

CCOC(=O)C1CCCN(S(=O)(=O)c2cccs2)C1 (stereo unspecified)
IC50 [1]: < 0.4 µM (not active)

CCc1ccc(-c2cc(C(=O)NCc3ccccn3)c3ccccc3n2)cc1
EC50 (H4): 11.4 µM (active)
EC50 [5]: 21.4 µM (active)
EC50 [6]: 6.99 µM (active)

CCOC(=O)c1cn(CC(=O)Nc2cccc(Cl)c2C)nn1
AC50 [3]: 4.65 µM (active)
AC50 [4]: > 70 µM (inactive)
